This passage reports IC50 and inhibition in vivo results from US7973012B2, “C-phenyl glycitol compound” (Taisho Pharmaceutical Co., Ltd, priority 2006, dated 2011).

Structures are written as SMILES.

For orientation: IC50 means the concentration needed to halve the response being measured. A higher IC50 goes with lower potency.

One test concerns the target T1, human SGLT1 (Homo sapiens, UniProt P13866).
T1 construct: expressed in transfected cells; host or cells: CHO-k1
T1 sequence (P13866 1-664): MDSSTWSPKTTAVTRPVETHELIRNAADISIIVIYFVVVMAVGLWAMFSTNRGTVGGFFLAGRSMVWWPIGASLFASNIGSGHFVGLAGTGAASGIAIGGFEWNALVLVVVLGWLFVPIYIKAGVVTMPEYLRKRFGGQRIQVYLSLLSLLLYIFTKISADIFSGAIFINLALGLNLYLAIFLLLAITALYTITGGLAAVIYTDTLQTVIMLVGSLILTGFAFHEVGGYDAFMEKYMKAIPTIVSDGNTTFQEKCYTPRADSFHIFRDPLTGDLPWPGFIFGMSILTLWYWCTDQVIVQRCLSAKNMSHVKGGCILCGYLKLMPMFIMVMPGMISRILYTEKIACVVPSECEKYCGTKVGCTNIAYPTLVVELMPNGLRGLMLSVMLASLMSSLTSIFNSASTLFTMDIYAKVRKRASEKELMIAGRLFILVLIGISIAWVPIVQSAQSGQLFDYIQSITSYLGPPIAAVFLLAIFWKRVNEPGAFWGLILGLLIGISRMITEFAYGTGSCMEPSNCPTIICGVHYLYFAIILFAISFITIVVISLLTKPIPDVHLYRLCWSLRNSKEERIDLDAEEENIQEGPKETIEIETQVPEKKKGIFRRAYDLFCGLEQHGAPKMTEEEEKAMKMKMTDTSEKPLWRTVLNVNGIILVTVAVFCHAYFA
Description: Inhibition test of sodium-dependent sugar uptake in CHO-k1 cells stably expressing human SGLT1. It counts as cell-based. Conditions: CHO-k1 cells expressing human SGLT1; [14C]methyl α-D-glucopyranoside uptake, 37° C., 30 minutes. In a few lines:
(§1)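 CHO-k1 cells stably expressing the human transporter were preincubated 20 min in Na-free choline buffer, then given compound in NaCl uptake buffer with 1 mM [14C]methyl α-D-glucopyranoside (pH 7.4) at 37 °C for 30 min (SGLT1) or 1 h (SGLT2). Radioactivity uptake was compared with compound-free control; IC50 came from 6 concentrations.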

Another test concerns the target T2, human SGLT2 (Homo sapiens, UniProt P31639).
T2 construct: expressed in transfected cells; host or cells: CHO-k1
T2 sequence (P31639 1-672): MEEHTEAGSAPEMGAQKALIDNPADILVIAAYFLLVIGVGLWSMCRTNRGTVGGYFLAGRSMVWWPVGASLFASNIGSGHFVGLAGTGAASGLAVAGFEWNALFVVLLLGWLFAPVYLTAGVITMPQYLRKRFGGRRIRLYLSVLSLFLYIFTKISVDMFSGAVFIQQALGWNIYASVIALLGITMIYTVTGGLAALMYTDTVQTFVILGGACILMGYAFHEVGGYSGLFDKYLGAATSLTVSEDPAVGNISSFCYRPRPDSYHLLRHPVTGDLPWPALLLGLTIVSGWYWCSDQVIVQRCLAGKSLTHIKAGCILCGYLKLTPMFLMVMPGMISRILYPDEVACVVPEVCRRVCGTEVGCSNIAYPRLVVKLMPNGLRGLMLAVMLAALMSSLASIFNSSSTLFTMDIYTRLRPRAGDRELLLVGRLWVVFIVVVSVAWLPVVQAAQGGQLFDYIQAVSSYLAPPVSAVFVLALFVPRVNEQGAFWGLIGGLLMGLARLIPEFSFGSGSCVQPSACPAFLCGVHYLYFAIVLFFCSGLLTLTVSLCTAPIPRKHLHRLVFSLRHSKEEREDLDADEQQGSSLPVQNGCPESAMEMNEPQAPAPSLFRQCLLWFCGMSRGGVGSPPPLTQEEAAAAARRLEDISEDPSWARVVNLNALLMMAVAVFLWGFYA
Description: Inhibition test of sodium-dependent sugar uptake in CHO-k1 cells stably expressing human SGLT2. It counts as cell-based. The conditions noted are these: CHO-k1 cells expressing human SGLT2; [14C]methyl α-D-glucopyranoside uptake, 37° C., an hour. In a few lines:
as §1

The test system of test [1] is Streptozotocin diabetic model rats. Description: Oral glucose tolerance test in streptozotocin diabetic model rats. The format is in vivo. Conditions: Rattus norvegicus; STZ diabetic SD/IGS rats; 1 mg/kg oral, glucose 2 g/kg oral 5 minutes later; decrease rate of ΔAUC 0-1 h vs control group; read-out: STZ rats-OGTT(2 g/kg) % inhibition ΔAUC0-1 h(mgh/dL) @1 mg/kg. The protocol: 7-week-old SD/IGS rats (from CHARLES RIVER LABORATORIES JAPAN, INC., male) were fasted for about 16 hours. Then to these rats under etherization were administered 50 mg/kg of streptozotocin (STZ) via the tail vein to prepare diabetic model rats. Similarly, to rats under etherization were administered 1 mL/kg physiological saline containing 1.25 mmol/L of citric acid via tail veins to prepare normal control rats. One week (8 weeks old) after administration of STZ or 1.25 mmol/L citric acid physiological saline, the rats were subjected to oral glucose tolerance test.
After the rats were fasted for about 16 hours, the medicament (1 mg/kg) suspended in a 0.5% carboxymethyl cellulose (CMC) aqueous solution was orally administered to a medicament treated group, and only a 0.5% aqueous solution of CMC was orally administered to a control group. At 5 minutes after the administration, a glucose solution (2 g/kg) was orally administered to each rat, and blood was collected at 5 points in total: before the administration (0 time), after 0.25, 0.5, 1 and 2 hours after the oral administration.
The blood was collected from the orbital sinus venosus of each rat under etherization with a heparin-coated blood collection tube and centrifuged, and then blood plasma was separated. The concentration of glucose in the blood plasma was determined with Glucose CII Test Wako from Wako Pure Chemical Industries, Ltd. As for the intensity of inhibitory effect on elevation of blood glucose level, area under the blood glucose level curve (AUC) was calculated by the trapezoidal rule based on the blood glucose levels of the medicament treated group from 0 time to 1 hour time. And a basal value is subtracted from AUC to describe the intensity as area under the blood glucose level increment (ΔAUC) and describe the intensity as a decrease rate from the ΔAUC of the control group.

As for `Cc1cc(O)c([C@@H]2O[C@H](CO)[C@@H](O)[C@H](O)[C@H]2O)cc1Cc1ccc(CCCC(=O)NC(C)(C)C(N)=O)cc1` [Compound 4, (1S)-1-[5-[4-[4-[(2-amino-1,1-dimethyl-2-oxoethyl)amino]-4-oxobutyl]benzyl]-2-hydroxy-4-methylphenyl]-1,5-anhydro-D-glucitol], the values for the IC50 against human SGLT1 and against human SGLT2 were 51 nM and 31 nM, respectively. Moreover, the inhibition in vivo at 1 mg/kg in test [1] worked out at 51%.
Regarding `Cc1cc(O)c([C@@H]2O[C@H](CO)[C@@H](O)[C@H](O)[C@H]2O)cc1Cc1ccc(CCNC(=O)NC(C)(C)C(=O)N2CCN(C)CC2)cc1` [Compound 12, (1S)-1,5-anhydro-1-[5-[4-[2-[[[1-[1-(4-methylpiperazin-1-yl)carbonyl]-1-(methyl)ethyl]aminocarbonyl]amino]ethyl]benzyl]-2-hydroxy-4-methylphenyl]-D-glucitol], the IC50 was found to be 113 nM at human SGLT1 and 48 nM on human SGLT2. The inhibition in vivo at 1 mg/kg in test [1] came to 48.8%.
The matching figures for `Cc1cc(O)c([C@@H]2O[C@H](CO)[C@@H](O)[C@H](O)[C@H]2O)cc1Cc1ccc(CCCC(=O)NC(CO)(CO)CO)cc1` [Compound 3, (1S)-1,5-anhydro-1-[2-hydroxy-5-[4-[4-[[2-hydroxy-1,1-bis(hydroxymethyl)ethyl]amino]-4-oxobutyl]benzyl]-4-methylphenyl]-D-glucitol]: 35 nM, 65 nM and 63.9%.
